Assay results taken from US20250002460A1, “SORTILIN INHIBITORS” (SORTINA PHARMA AB, priority 2021, published 2025).
pIC50: −log10 of the molar value.

tested on: MDA-MB-231 breast cancer cell line; experiment: Secondary sphere formation assay in MDA-MB-231; format: cell-based; settings: MDA-MB-231, without progranulin, 48 hours
Protocol: C-terminal Progranulin (progranulin) (Casio, peptide sequence: […], SEQ ID NO: 5) were reconstituted in sterile PBS upon delivery, aliquoted and stored at −20° C. Working stock concentrations were achieved by dilution in culture media. […] 5% CO2 and 21% O2 before performing the primary followed by secondary sphere formation assay.
The sphere formation assay was performed as described previously (Mammary Gland Biol Neoplasia, 2012, 17(2): 111-117). Briefly, single cell suspensions were obtained following treatment with respective sortilin inhibitors SI1, SI5, SI8, SI25, SI32, SI39, SI51 and SI62 of the invention and seeded in phenol red-free DMEM/F-12 (Gibco®, Life Technologies), supplemented with 1% B27 supplement (Fisher Scientific, Invitrogen), 1% P/S and 20 ng/ml EGF (BD Biosciences) onto non-adherent polyhema-coated plates. After cultivation for five days, single cell suspensions were obtained from the primary spheres and seeded again in phenol red-free DMEM/F-12 supplemented with 1% B27 supplement, 1% P/S and 20 ng/ml EGF onto non-adherent polyhema-coated plates for 5-7 days. Subsequently, spheres greater than 50 μm in diameter were counted manually in the microscope.

| Compound | baseline sphere formation, compound used alone |
| --- | --- |
| CC(C)(C)/C=C/C(NC(=O)c1cccc(-n2ccnc2)c1)C(=O)O (stereo not drawn) [SI25, (E)-5,5-dimethyl-2[m-(1-imidazolyl)benzoylamino]-3-hexenoic acid] | reduced baseline sphere formation |
| CC(C)(C)/C=C/C(NC(=O)c1cc(Cl)cs1)C(=O)O (stereo not drawn) [SI32, (E)-2-(4-chloro-2-thienylcarbonylamino)-5,5-dimethyl-3-hexenoic acid] | reduced baseline sphere formation |

biological target: T1, human sortilin (sSORT) (Homo sapiens, UniProt Q99523); experiment: Neurotensin competitive fluorescence polarization binding assay (FPA); settings: mean IC50 values for sortilin inhibitors, IC50 (nM), 100 nM sSORT, 10 nM Neurotensin-Ahx-FITC, 1 h room temperature
T1 sequence (Q99523 78-756 limits assumed): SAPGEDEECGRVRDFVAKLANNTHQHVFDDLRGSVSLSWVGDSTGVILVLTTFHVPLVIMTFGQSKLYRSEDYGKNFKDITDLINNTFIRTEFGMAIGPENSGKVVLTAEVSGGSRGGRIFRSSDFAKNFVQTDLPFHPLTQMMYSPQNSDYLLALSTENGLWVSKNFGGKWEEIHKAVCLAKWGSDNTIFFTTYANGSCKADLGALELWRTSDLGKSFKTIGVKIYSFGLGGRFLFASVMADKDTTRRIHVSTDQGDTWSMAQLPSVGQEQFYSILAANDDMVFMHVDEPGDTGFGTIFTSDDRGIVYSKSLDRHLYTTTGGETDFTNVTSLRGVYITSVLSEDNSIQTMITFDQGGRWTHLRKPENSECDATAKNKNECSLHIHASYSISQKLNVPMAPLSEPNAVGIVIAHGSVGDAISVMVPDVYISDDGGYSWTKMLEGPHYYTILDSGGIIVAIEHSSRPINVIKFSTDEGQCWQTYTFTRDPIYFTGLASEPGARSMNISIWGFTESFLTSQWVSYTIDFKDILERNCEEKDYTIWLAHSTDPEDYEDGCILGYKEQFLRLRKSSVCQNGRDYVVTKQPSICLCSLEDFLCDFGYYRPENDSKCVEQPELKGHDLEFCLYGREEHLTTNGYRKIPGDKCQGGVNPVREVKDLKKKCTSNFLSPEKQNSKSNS
Protocol: Fresh 0.1% bovine serum albumin (BSA) was added to the assay buffer to obtain the final concentration: 50 mM HEPES, pH 7.4; 100 mM NaCl; 2.0 mM CaCl2; 0.1% BSA; 0.1% TWEEN® 20. The sortilin inhibitors of the invention and reference compounds (see Table 1) analyzed in the screen and neurotensin (used as an assay control) were serially diluted in ten different concentrations in assay buffer. In each well of a Nunc® MaxiSorp™ 384-well plate (Sigma Aldrich), 100 nM sSORT was mixed with pre-diluted sortilin inhibitors and 10 nM Neurotensin-Ahx-FITC in assay buffer adjusted to contain 1% DMSO in a final volume of 20 μl. The plate was then briefly centrifuged prior to 1 h incubation at room temperature in the dark.

| IC50 | Compound |
| --- | --- |
| 135 nM | CC(C)(C)/C=C/C(NC(=O)C1CN(c2ccccn2)CCN1)C(=O)O (single isomer, unassigned) [SI3 diastereomer 1, (E)-5,5-dimethyl-2-[4-(2-pyridyl)-2-piperazinylcarbonylamino]-3-hexenoic acid] |
| 31 nM | CC(C)(C)/C=C/C(NC(=O)c1cccc(-c2cccs2)c1)C(=O)O (stereo not drawn) [SI52, (E)-5,5-dimethyl-2-[m-(2-thienyl)benzoylamino]-3-hexenoic acid] |
| 316 nM | Cn1nc(-c2cccnc2)cc1C(=O)NC(/C=C/C(C)(C)C)C(=O)O (stereo not drawn) [SI59, (E)-5,5-dimethyl-2-[1-methyl-3-(3-pyridyl)-5-pyrazolylcarbonylamino]-3-hexenoic acid] |
| 56 nM | CC(C)(C)/C=C/C(NC(=O)c1ccc(Oc2cccnc2)cc1)C(=O)O (stereo not drawn) [SI34, (E)-5,5-dimethyl-2-[p-(3-pyridyloxy)benzoylamino]-3-hexenoic acid] |
| 31 nM | CC(C)(C)/C=C/C(NC(=O)c1cccc(-n2ccnc2)c1)C(=O)O (stereo not drawn) [SI25, (E)-5,5-dimethyl-2[m-(1-imidazolyl)benzoylamino]-3-hexenoic acid] |
| 1000 nM | Cc1cc(C(=O)NC(/C=C/C(C)(C)C)C(=O)O)nc(N(C)C)n1 (stereo not drawn) [SI20, (E)-2-[2-(dimethylamino)-6-methyl-4-pyrimidinylcarbonylamino]-5,5-dimethyl-3-hexenoic acid] |
| 158 nM | CC(C)(C)/C=C/C(NC(=O)c1ccc(Oc2cccc(Cl)c2)cc1)C(=O)O (stereo not drawn) [SI54, (E)-2-[p-(m-chlorophenoxy)benzoylamino]-5,5-dimethyl-3-hexenoic acid] |
| 158 nM | CC(C)(C)/C=C/C(NC(=O)c1ccc(-n2cnnc2)cc1)C(=O)O (stereo not drawn) [SI23, (E)-5,5-dimethyl-2-[p-(4H-1,2,4-triazol-4-yl)benzoylamino]-3-hexenoic acid] |
| 62 nM | CC(C)(C)/C=C/C(NC(=O)c1cccc(-n2cnnc2)c1)C(=O)O (stereo not drawn) [SI6, (E)-5,5-dimethyl-2-[m-(4H-1,2,4-triazol-4-yl)benzoylamino]-3-hexenoic acid] |
| 52 nM | CC(C)(C)/C=C/C(NC(=O)c1cc(Cl)cs1)C(=O)O (stereo not drawn) [SI32, (E)-2-(4-chloro-2-thienylcarbonylamino)-5,5-dimethyl-3-hexenoic acid] |
| 45 nM | Cn1nc(Cl)cc1C(=O)NC(/C=C/C(C)(C)C)C(=O)O (stereo not drawn) [SI57, (E)-2-(3-chloro-1-methyl-5-pyrazolylcarbonylamino)-5,5-dimethyl-3-hexenoic acid] |
| 89 nM | Cc1cc2[nH]c(C(=O)NC(/C=C/C(C)(C)C)C(=O)O)cc2cn1 (stereo not drawn) [SI7, (E)-5,5-dimethyl-2-(6-methyl-1H-1,5-diazainden-2-ylcarbonylamino)-3-hexenoic acid] |
| 95 nM | CCn1nc(CC(C)C)cc1C(=O)NC(/C=C/C(C)(C)C)C(=O)O (stereo not drawn) [SI56, (E)-2-(1-ethyl-3-isobutyl-5-pyrazolylcarbonylamino)-5,5-dimethyl-3-hexenoic acid] |
| 71 nM | Cn1cc(Cl)cc1C(=O)NC(/C=C/C(C)(C)C)C(=O)O (stereo not drawn) [SI31, (E)-2-(4-chloro-1-methyl-2-pyrrolylcarbonylamino)-5,5-dimethyl-3-hexenoic acid] |
| 851 nM | CN(C)c1nccc(C(=O)NC(/C=C/C(C)(C)C)C(=O)O)n1 (stereo not drawn) [SI19, (E)-2-[2-(dimethylamino)-4-pyrimidinylcarbonylamino]-5,5-dimethyl-3-hexenoic acid] |
| 148 nM | CC(C)(C)/C=C/C(NC(=O)c1ccc(Oc2ccc(Cl)cc2)cc1)C(=O)O (stereo not drawn) [SI53, (E)-2-[p-(p-chlorophenoxy)benzoylamino]-5,5-dimethyl-3-hexenoic acid] |
| 668 nM | CC(C)(C)/C=C/C(NC(=O)c1cccc(-n2cnnc2)n1)C(=O)O (stereo not drawn) [SI50, (E)-5,5-dimethyl-2-[6-(4H-1,2,4-triazol-4-yl)-2-pyridylcarbonylamino]-3-hexenoic acid] |

| IC50 | Compound |
| --- | --- |
| 339 nM | CC(C)(C)/C=C/C(NC(=O)C1CN(c2ccccn2)CCN1)C(=O)O (single isomer, unassigned) [SI3 diastereomer 2, (E)-5,5-dimethyl-2-[4-(2-pyridyl)-2-piperazinylcarbonylamino]-3-hexenoic acid] |
| 123 nM | Cc1nc(N(C)C)ncc1C(=O)NC(CCC(C)(C)C)C(=O)O (stereo not drawn) [RC1, 2-[2-(dimethylamino)-4-methyl-5-pyrimidinylcarbonylamino]-5,5-dimethylhexanoic acid, reference compound] |
| 5 nM | CC(C)(C)/C=C/C(NC(=O)c1ccc(Oc2ccccc2)nc1)C(=O)O (single isomer, unassigned) [SI (active enantiomer), (E)-5,5-dimethyl-2-(6-phenoxynicotinoylamino)-3-hexenoic acid] |
| 80 nM | CC(C)(C)/C=C/C(NC(=O)c1ccc(Cl)[nH]1)C(=O)O (stereo not drawn) [SI29, (E)-2-(5-chloro-2-pyrrolylcarbonylamino)-5,5-dimethyl-3-hexenoic acid] |
| 102 nM | CC(C)Cc1cc(C(=O)NC(/C=C/C(C)(C)C)C(=O)O)n(C)n1 (stereo not drawn) [SI9, (E)-2-(3-isobutyl-1-methyl-5-pyrazolylcarbonylamino)-5,5-dimethyl-3-hexenoic acid] |
| 55 nM | CC(C)(C)/C=C/C(NC(=O)c1cc(Br)c[nH]1)C(=O)O (stereo not drawn) [SI28, (E)-2-(4-bromo-2-pyrrolylcarbonylamino)-5,5-dimethyl-3-hexenoic acid] |
| 229 nM | CC(C)(C)/C=C/C(NC(=O)C1CN(c2ccncc2)CCN1)C(=O)O (single isomer, unassigned) [SI4 diastereomer 1, (E)-5,5-dimethyl-2-[4-(4-pyridyl)-2-piperazinylcarbonylamino]-3-hexenoic acid] |
| 158 nM | CC(C)(C)/C=C/C(NC(=O)c1cnc(Oc2ccccc2)nc1)C(=O)O (stereo not drawn) [SI44, (E)-5,5-dimethyl-2-(2-phenoxy-5-pyrimidinylcarbonylamino)-3-hexenoic acid] |
| 28 nM | CC(C)(C)CC[C@H](NC(=O)c1ccc(Oc2ccccc2)nc1)C(=O)O [RC2 (active enantiomer), (S)-5,5-dimethyl-2-(6-phenoxynicotinoylamino)hexanoic acid, reference compound] |
| 149 nM | CN(C)c1ncc(C(=O)NC(/C=C/C(C)(C)C)C(=O)O)cn1 (stereo not drawn) [SI17, (E)-2-[2-(dimethylamino)-5-pyrimidinylcarbonylamino]-5,5-dimethyl-3-hexenoic acid] |
| 117 nM | Cn1nc(C(=O)NC(/C=C/C(C)(C)C)C(=O)O)cc1-c1ccc(Cl)c(Cl)c1 (stereo not drawn) [SI61, (E)-2-[5-(3,4-dichlorophenyl)-1-methyl-3-pyrazolylcarbonylamino]-5,5-dimethyl-3-hexenoic acid] |
| 912 nM | CC(C)(C)/C=C/C(NC(=O)C1CN(c2ccncc2)CCN1)C(=O)O (single isomer, unassigned) [SI4 diastereomer 2, (E)-5,5-dimethyl-2-[4-(4-pyridyl)-2-piperazinylcarbonylamino]-3-hexenoic acid] |
| 52 nM | CC(C)(C)/C=C/C(NC(=O)c1cccc(-n2cncn2)c1)C(=O)O (stereo not drawn) [SI24, (E)-5,5-dimethyl-2-[m-(1H-1,2,4-triazol-1-yl)benzoylamino]-3-hexenoic acid] |
| 116 nM | CC(C)(C)/C=C/C(NC(=O)c1ccc(COc2ccccc2)cc1)C(=O)O (stereo not drawn) [SI55, (E)-5,5-dimethyl-2-[p-(phenoxymethyl)benzoylamino]-3-hexenoic acid] |
| 9 nM | Cc1nc(N(C)C)ncc1C(=O)NC(/C=C/C(C)(C)C)C(=O)O (single isomer, unassigned) [SI1 (active enantiomer), (E)-2-[2-(dimethylamino)-4-methyl-5-pyrimidinylcarbonylamino]-5,5-dimethyl-3-hexenoic acid] |
| 234 nM | CC(C)(C)/C=C/C(NC(=O)c1ccc(C(=O)C(F)(F)F)cc1)C(=O)O (stereo not drawn) [SI2, (E)-5,5-dimethyl-2-[p-(2,2,2-trifluoroacetyl)benzoylamino]-3-hexenoic acid] |

same assay, conditions: read-out: mean IC50 values for sortilin inhibitors, IC50; 100 nM sSORT, 10 nM Neurotensin-Ahx-FITC, 1 h room temperature

| pIC50 | Compound |
| --- | --- |
| 7.17 | (E)-2-(2-isopropyl-4-methyl-5-pyrimidinylcarbonylamino)-5,5-dimethyl-3-hexenoic acid [SI49] |
